Results: EPA's ToxValDB 9.5
“And” between values parts separate entries of the source, which are not always exact repeats. Equal values may be shown once.

How the values were obtained:
Rattus norvegicus [1] = settings: subchronic; oral; diet; M; Fischer 344; Body Weight Changes: decrease + Blood Chemistry: Alp increase, Bile acid increase, ALT increase, SDH increase + Absolute Organ Weight: Liver…
Rattus norvegicus [2] = settings: short-term, duration: 28 days, oral, gavage, Sprague-Dawley

Cc1cccc(Nc2cc(Cl)nc(SCC(=O)O)n2)c1C [[4-Chloro-6-(2,3-xylidino)-2-pyrimidinylthio]acetic acid]
25 mg/kg-day: LOEL (Rattus norvegicus [2]; F, Clinical chemistry_Alanine aminotransferase) | LOEL (Rattus norvegicus [2]; F, Clinical chemistry_Aspartate aminotransferase) | NOEL (Rattus norvegicus [2]; F, Clinical chemistry_Cholesterol) | NOEL (Rattus norvegicus [2]; F, Clinical chemistry_Creatinine kinase) | NOEL (Rattus norvegicus [2]; F, Clinical chemistry_Direct bilirubin) | NOEL (Rattus norvegicus [2]; F, Clinical chemistry_Free thyroxine) | NOEL (Rattus norvegicus [2]; F, Clinical chemistry_Indirect bilirubin) | NOEL (Rattus norvegicus [2]; F, Clinical chemistry_T bilirubin) | NOEL (Rattus norvegicus [2]; F, Clinical chemistry_Total bile acids) | NOEL (Rattus norvegicus [2]; F, Clinical chemistry_Total bilirubin) | NOEL (Rattus norvegicus [2]; F, Clinical chemistry_Total thyroxine) | NOEL (Rattus norvegicus [2]; F, Clinical chemistry_Triglycerides) | NOEL (Rattus norvegicus [2]; F, Hematology_Erythrocytes) | NOEL (Rattus norvegicus [2]; F, Hematology_Hematocrit) | NOEL (Rattus norvegicus [2]; F, Hematology_Hemoglobin) | NOEL (Rattus norvegicus [2]; F, Hematology_Leukocytes) | NOEL (Rattus norvegicus [2]; F, Hematology_Mean corpuscular hemoglobin concentration) | NOEL (Rattus norvegicus [2]; F, Hematology_Mean corpuscular volume) | NOEL (Rattus norvegicus [2]; F, Hematology_Platelets) | NOEL (Rattus norvegicus [2]; F, Hematology_Reticulocytes) | NOEL (Rattus norvegicus [2]; F, Hematology_S. neutrophils) | NOEL (Rattus norvegicus [2]; F, Nonneoplastic effects_Bone marrow - Hypocellularity) | NOEL (Rattus norvegicus [2]; F, Nonneoplastic effects_Kidney - Papilla, necrosis) | NOEL (Rattus norvegicus [2]; F, Nonneoplastic effects_Liver - Hepatocyte, Necrosis) | LOEL (Rattus norvegicus [2]; F, Nonneoplastic effects_Liver - Hepatocyte, hypertrophy) | NOEL (Rattus norvegicus [2]; F, Nonneoplastic effects_Liver - Hepatocyte, vacuolization cytoplasmic) | NOEL (Rattus norvegicus [2]; F, Nonneoplastic effects_Liver - Necrosis) | NOEL (Rattus norvegicus [2]; F, Nonneoplastic effects_Nose - Olfactory epithelium, degeneration) | NOEL (Rattus norvegicus [2]; F, Nonneoplastic effects_Nose - Olfactory epithelium, hyperplasia) | NOEL (Rattus norvegicus [2]; F, Nonneoplastic effects_Nose - Olfactory epithelium, inflammation, suppurative) | NOEL (Rattus norvegicus [2]; F, Nonneoplastic effects_Nose - Olfactory epithelium, necrosis) | NOEL (Rattus norvegicus [2]; F, Nonneoplastic effects_Spleen - Extramedullary hematopoiesis, decreased) | NOEL (Rattus norvegicus [2]; F, Nonneoplastic effects_Stomach, forestomach - Epithelium, hyperplasia) | NOEL (Rattus norvegicus [2]; F, Nonneoplastic effects_Thymus - Atrophy) | NOEL (Rattus norvegicus [2]; F, Organ weights_Heart - Absolute) | NOEL (Rattus norvegicus [2]; F, Organ weights_Heart - Relative) | NOEL (Rattus norvegicus [2]; F, Organ weights_Lung - Absolute) | NOEL (Rattus norvegicus [2]; F, Organ weights_Lung - Relative) | NOEL (Rattus norvegicus [2]; F, Organ weights_R. adrenal gland - Absolute) | NOEL (Rattus norvegicus [2]; F, Organ weights_R. adrenal gland - Relative) | NOEL (Rattus norvegicus [2]; F, Organ weights_Spleen - Absolute) | NOEL (Rattus norvegicus [2]; F, Organ weights_Spleen - Relative) | NOEL (Rattus norvegicus [2]; F, Organ weights_Thymus - Absolute) | NOEL (Rattus norvegicus [2]; F, Organ weights_Thymus - Relative) | NOEL (Rattus norvegicus [2]; F, Organ weights_Thyroid gland - Absolute) | NOEL (Rattus norvegicus [2]; F, Organ weights_Thyroid gland - Relative) | NOEL (Rattus norvegicus [2]; F, Survival rates) | NOEL (Rattus norvegicus [2]; F, body weight) | LOEL (Rattus norvegicus [2]; M, Clinical chemistry_Aspartate aminotransferase) | NOEL (Rattus norvegicus [2]; M, Clinical chemistry_Creatinine kinase) | LOEL (Rattus norvegicus [2]; M, Clinical chemistry_Direct bilirubin) | NOEL (Rattus norvegicus [2]; M, Clinical chemistry_Indirect bilirubin) | NOEL (Rattus norvegicus [2]; M, Clinical chemistry_T bilirubin) | LOEL (Rattus norvegicus [2]; M, Clinical chemistry_Testosterone) | LOEL (Rattus norvegicus [2]; M, Clinical chemistry_Thyroid stimulating hormone) | NOEL (Rattus norvegicus [2]; M, Clinical chemistry_Total bilirubin) | NOEL (Rattus norvegicus [2]; M, Clinical chemistry_Total triiodothyronine) | NOEL (Rattus norvegicus [2]; M, Clinical chemistry_Triglycerides) | NOEL (Rattus norvegicus [2]; M, Hematology_Erythrocytes) | NOEL (Rattus norvegicus [2]; M, Hematology_Hematocrit) | NOEL (Rattus norvegicus [2]; M, Hematology_Hemoglobin) | NOEL (Rattus norvegicus [2]; M, Hematology_Leukocytes) | NOEL (Rattus norvegicus [2]; M, Hematology_Mean corpuscular hemoglobin concentration) | NOEL (Rattus norvegicus [2]; M, Hematology_Mean corpuscular volume) | NOEL (Rattus norvegicus [2]; M, Hematology_Platelets) | NOEL (Rattus norvegicus [2]; M, Hematology_Reticulocytes) | NOEL (Rattus norvegicus [2]; M, Hematology_S. neutrophils) | NOEL (Rattus norvegicus [2]; M, Nonneoplastic effects_Bone marrow - Hypocellularity) | NOEL (Rattus norvegicus [2]; M, Nonneoplastic effects_Epididymis - Duct, exfoliated germ cell) | NOEL (Rattus norvegicus [2]; M, Nonneoplastic effects_Epididymis - Epithelium, apoptosis) | NOEL (Rattus norvegicus [2]; M, Nonneoplastic effects_Epididymis - Hypospermia) | NOEL (Rattus norvegicus [2]; M, Nonneoplastic effects_Forestomach - Epithelium, hyperplasia) | NOEL (Rattus norvegicus [2]; M, Nonneoplastic effects_Forestomach - Inflammation, chronic active) | NOEL (Rattus norvegicus [2]; M, Nonneoplastic effects_Kidney - Nephropathy, chronic progressive) | NOEL (Rattus norvegicus [2]; M, Nonneoplastic effects_Kidney - Papilla, necrosis) | NOEL (Rattus norvegicus [2]; M, Nonneoplastic effects_Liver - Hepatocyte, Necrosis) | NOEL (Rattus norvegicus [2]; M, Nonneoplastic effects_Liver - Hepatocyte, vacuolization cytoplasmic) | NOEL (Rattus norvegicus [2]; M, Nonneoplastic effects_Liver - Necrosis) | NOEL (Rattus norvegicus [2]; M, Nonneoplastic effects_Lymph nodes - Mandibular, atrophy) | NOEL (Rattus norvegicus [2]; M, Nonneoplastic effects_Lymph nodes - Mesenteric, atrophy) | NOEL (Rattus norvegicus [2]; M, Nonneoplastic effects_Nose - Olfactory epithelium, degeneration) | NOEL (Rattus norvegicus [2]; M, Nonneoplastic effects_Nose - Olfactory epithelium, hyperplasia) | NOEL (Rattus norvegicus [2]; M, Nonneoplastic effects_Nose - Olfactory epithelium, inflammation, suppurative) | NOEL (Rattus norvegicus [2]; M, Nonneoplastic effects_Nose - Olfactory epithelium, necrosis) | NOEL (Rattus norvegicus [2]; M, Nonneoplastic effects_Nose - Respiratory epithelium, hyperplasia) | NOEL (Rattus norvegicus [2]; M, Nonneoplastic effects_Nose - Respiratory epithelium, inflammation, chronic active) | NOEL (Rattus norvegicus [2]; M, Nonneoplastic effects_Spleen - Atrophy) | NOEL (Rattus norvegicus [2]; M, Nonneoplastic effects_Spleen - Extramedullary hematopoiesis, decreased) | NOEL (Rattus norvegicus [2]; M, Nonneoplastic effects_Spleen - Extramedullary hematopoiesis, increased) | NOEL (Rattus norvegicus [2]; M, Nonneoplastic effects_Stomach, forestomach - Epithelium, hyperplasia) | NOEL (Rattus norvegicus [2]; M, Nonneoplastic effects_Testes - Germinal epithelium, degeneration) | NOEL (Rattus norvegicus [2]; M, Nonneoplastic effects_Testes - Interstitial cell, atrophy) | NOEL (Rattus norvegicus [2]; M, Nonneoplastic effects_Testes - Seminiferous tubule, spermatid retention) | NOEL (Rattus norvegicus [2]; M, Nonneoplastic effects_Thymus - Atrophy) | NOEL (Rattus norvegicus [2]; M, Nonneoplastic effects_Thymus - Lymphocyte, apoptosis) | NOEL (Rattus norvegicus [2]; M, Nonneoplastic effects_Thyroid gland - Follicular cell hypertrophy) | LOEL (Rattus norvegicus [2]; M, Organ weights_Heart - Absolute) | NOEL (Rattus norvegicus [2]; M, Organ weights_Heart - Relative) | NOEL (Rattus norvegicus [2]; M, Organ weights_Lung - Absolute) | NOEL (Rattus norvegicus [2]; M, Organ weights_Lung - Relative) | NOEL (Rattus norvegicus [2]; M, Organ weights_R. adrenal gland - Absolute) | NOEL (Rattus norvegicus [2]; M, Organ weights_R. adrenal gland - Relative) | NOEL (Rattus norvegicus [2]; M, Organ weights_R. testis - Absolute) | NOEL (Rattus norvegicus [2]; M, Organ weights_Spleen - Relative) | NOEL (Rattus norvegicus [2]; M, Organ weights_Thymus - Absolute) | NOEL (Rattus norvegicus [2]; M, Organ weights_Thymus - Relative) | NOEL (Rattus norvegicus [2]; M, Organ weights_Thyroid gland - Absolute) | NOEL (Rattus norvegicus [2]; M, Survival rates)
12.5 mg/kg-day: LOEL (Rattus norvegicus [2]; F, Clinical chemistry_Total protein)
12.5 mg/kg-day and 6.25 mg/kg-day: LOEL (Rattus norvegicus [2]; F, Clinical chemistry_Total triiodothyronine)
6.25 mg/kg-day: LOEL (Rattus norvegicus [2]; F, Clinical chemistry_Albumin) | LOEL (Rattus norvegicus [2]; F, Clinical chemistry_Albumin/globulin ratio) | LOEL (Rattus norvegicus [2]; F, Clinical chemistry_Alkaline phosphatase) | LOEL (Rattus norvegicus [2]; F, Clinical chemistry_Globulin) | LOEL (Rattus norvegicus [2]; F, Clinical chemistry_Sorbitol dehydrogenase) | LOEL (Rattus norvegicus [2]; F, Clinical chemistry_Testosterone) | LOEL (Rattus norvegicus [2]; F, Clinical chemistry_Thyroid stimulating hormone) | LOEL (Rattus norvegicus [2]; F, Gene expression_Acox1) | LOEL (Rattus norvegicus [2]; F, Gene expression_Cyp2b1) | LOEL (Rattus norvegicus [2]; F, Gene expression_Cyp2b2) | LOEL (Rattus norvegicus [2]; F, Gene expression_Cyp4a1) | LOEL (Rattus norvegicus [2]; F, Nonneoplastic effects_Liver - Hepatocyte, cytoplasmic alteration) | LOEL (Rattus norvegicus [2]; F, Organ weights_Liver - Absolute) | LOEL (Rattus norvegicus [2]; F, Organ weights_Liver - Relative) | LOEL (Rattus norvegicus [2]; F, Organ weights_R. kidney - Absolute) | LOEL (Rattus norvegicus [2]; F, Organ weights_R. kidney - Relative) | LOEL (Rattus norvegicus [2]; F, Reproductive toxicity_Altered estrous cyclicity) | LOEL (Rattus norvegicus [2]; M, Clinical chemistry_Alanine aminotransferase) | LOEL (Rattus norvegicus [2]; M, Clinical chemistry_Albumin) | LOEL (Rattus norvegicus [2]; M, Clinical chemistry_Albumin/globulin ratio) | LOEL (Rattus norvegicus [2]; M, Clinical chemistry_Alkaline phosphatase) | LOEL (Rattus norvegicus [2]; M, Clinical chemistry_Cholesterol) | LOEL (Rattus norvegicus [2]; M, Clinical chemistry_Free thyroxine) | LOEL (Rattus norvegicus [2]; M, Clinical chemistry_Globulin) | LOEL (Rattus norvegicus [2]; M, Clinical chemistry_Sorbitol dehydrogenase) | LOEL (Rattus norvegicus [2]; M, Clinical chemistry_Total bile acids) | LOEL (Rattus norvegicus [2]; M, Clinical chemistry_Total protein) | LOEL (Rattus norvegicus [2]; M, Clinical chemistry_Total thyroxine) | LOEL (Rattus norvegicus [2]; M, Gene expression_Acox1) | LOEL (Rattus norvegicus [2]; M, Gene expression_Acyl-CoA oxidase) | LOEL (Rattus norvegicus [2]; M, Gene expression_Altered sperm parameters) | LOEL (Rattus norvegicus [2]; M, Gene expression_Cyp2b1) | LOEL (Rattus norvegicus [2]; M, Gene expression_Cyp2b2) | LOEL (Rattus norvegicus [2]; M, Gene expression_Cyp4a1) | LOEL (Rattus norvegicus [2]; M, Nonneoplastic effects_Liver - Hepatocyte, cytoplasmic alteration) | LOEL (Rattus norvegicus [2]; M, Nonneoplastic effects_Liver - Hepatocyte, hypertrophy) | LOEL (Rattus norvegicus [2]; M, Organ weights_Liver - Absolute) | LOEL (Rattus norvegicus [2]; M, Organ weights_Liver - Relative) | LOEL (Rattus norvegicus [2]; M, Organ weights_R. kidney - Absolute) | LOEL (Rattus norvegicus [2]; M, Organ weights_R. kidney - Relative) | LOEL (Rattus norvegicus [2]; M, Organ weights_Spleen - Absolute) | LOEL (Rattus norvegicus [2]; M, Reproductive toxicity_Altered sperm parameters)
< 0.48 mg/kg-day: NOEL (Rattus norvegicus [1])
